Like-named read-outs stand apart in the source and are kept apart here.
How the values were obtained:
C1s [1] = target: T1, C1s (Homo sapiens, UniProt P09871); experiment: C1s inhibition IC50 assay (thioester substrate Z-Lys-SBzl with DTNB, photometric); format: biochemical; details: validation with FUT175; read-out: IC50 C1s (assay validation)
T1 construct: Recombinant C1s and C1r fragments (CCP1-CCP2-SP, the γB catalytic region); made in house
T1 sequence (P09871 438-688 limits assumed): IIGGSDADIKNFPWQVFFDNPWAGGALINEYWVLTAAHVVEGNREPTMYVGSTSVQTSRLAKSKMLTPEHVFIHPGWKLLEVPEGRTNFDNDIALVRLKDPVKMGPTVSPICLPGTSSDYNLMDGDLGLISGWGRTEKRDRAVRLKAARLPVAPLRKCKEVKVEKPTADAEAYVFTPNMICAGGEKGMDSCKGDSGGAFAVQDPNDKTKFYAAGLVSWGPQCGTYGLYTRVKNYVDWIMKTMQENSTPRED
Source text: Recombinant C1s and C1r fragments (CCP1-CCP2-SP, the γB catalytic region) containing the serine protease domain were expressed in E. Coli BL21(DE3)pLysS host strain (transformed with pET-17b vector) in form of inclusion bodies; proteins were isolated, renatured and purified as published earlier. Recombinant C1s, isolated in intact proenzyme form, was activated by limited proteolysis using the recombinant, autoactivated C1r fragment. Activated C1s and C1r were separated using Q Sepharose HP (Amersham Biosciences, Little Chalfont, UK) anion exchange chromatography.
40 µL enzyme + 10 µL inhibitor compounds were incubated (10 min, RT), and 50 µL substrate solution (1 mM final concentration) was added; incubated for 45 min and finally absorbance was read (405 nm) with a Perkin Elmer Wallac 1420 Victor2 microplate reader.

C1s [2] = target: T1, C1s; details: ref [49]; read-out: IC50 C1s, reported value; cited from earlier work
C1s [3] = details: ref [47]; cited from earlier work

| Compound | IC50 (C1s [1]) [nM] | IC50 (C1s [2]) [nM] | IC50 (C1s [3]) [nM] |
| --- | --- | --- | --- |
| N=C(N)c1ccc2cc(OC(=O)c3ccc(N=C(N)N)cc3)ccc2c1 [FUT175, nafamostat, reference compound] | 2 | 320 | – |
| O=c1oc(-c2ccccc2I)nc2ccccc12 [CID296008, 2-(2′-iodophenyl)-3,1-benzoxazin-4-one] | – | – | 1250 |

From paper PMC6832932, “Design and Selection of Novel C1s Inhibitors by In Silico and In Vitro Approaches” (Molecules, 2019)
